Measurements taken from patent US4246413A, “6-Oxamorphinans” (priority 1979, dated 1981).

Legend:
[1] = type: in vivo
[2] = oxymorphone-induced Straub tail test for antagonist activity; type: in vivo

In the case of COc1ccc2c(c1)[C@]13CCN(C)[C@H](C2)[C@@H]1CC(C)(C)OC3.Cl (racemic) [BL-6028, 3-Methoxy-7,7,17-trimethyl-6-oxamorphinan Hydrochloride], the “Agonist Activity ED50, Mice (SC)” value [1] was 0.053 mg/kg.
For CN1CC[C@]23COC(C)(C)C[C@H]2[C@H]1Cc1ccc(O)cc13 (racemic) [BL-6092, 3-Hydroxy-7,7,17-trimethyl-6-oxamorphinan], the “Agonist Activity ED50, Mice (SC)” value [1] was 0.038 mg/kg.
In the case of CC1(C)C[C@H]2[C@H]3Cc4ccc(O)cc4[C@@]2(CCN3CC2CC2)CO1.Cl (racemic) [BL-6097, 17-Cyclopropylmethyl-7,7-dimethyl-3-hydroxy-6-oxamorphinan Hydrochloride], the “Agonist Activity ED50, Mice (PO)” value ([1]; PO) was 0.35 mg/kg, the “Agonist Activity ED50, Mice (SC)” value [1] was 0.083 mg/kg and the “times as potent as morphine sulfate, orally” value ([1]; mice, oral, relative to morphine sulfate) was “about 8.9 times”. For the same molecule, the ED50 ([2]; sc, read-out: subcutaneous ED50, antagonist activity) was 0.8 mg/kg and the “times the antagonist activity of butorphanol” value ([2]; subcutaneous, relative to butorphanol) was “about 1.2 times”.
